# Measurements taken from ChEMBL document CHEMBL2010773, “Design and synthesis of a vialinin A analog with a potent inhibitory activity of TNF-α production and its transformation into a couple of bioprobes” (Bioorg Med Chem Lett, 2012).
# Activity calls are given as the source filed them. No cut-off for these calls is given here.
# Experiments:
# [1] = test system: RBL-2H3; experiment: Antiinflammatory activity in rat RBL2H3 cells assessed as inhibition of DNP-BSA-induced TNF-alpha production at 1 nM preincubated for 15 mins prior DNP-BSA challenge measured after 30 mins by ELISA; format: functional, cell-based
# [2] = test system: RBL-2H3; experiment: Antiinflammatory activity in rat RBL2H3 cells assessed as inhibition of DNP-BSA-induced TNF-alpha production preincubated for 15 mins prior DNP-BSA challenge measured after 30 mins by ELISA; format: functional, cell-based
# [3] = test system: Radical scavenging activity; experiment: Antioxidant activity assessed as DPPH radical scavenging activity after 30 mins by spectrophotometry; format: functional
SMILES,inhibition [1],IC50 [2],EC50 [3]
COCOc1c(OCOC)c(-c2ccc(O)cc2)c(C)c(C)c1-c1ccc(O)cc1,Active,0.32 nM,–
COc1ccc2c(COC(=O)CCCCCn3cc(COc4ccc(-c5c(C)c(C)c(-c6ccc(O)cc6)c(O)c5O)cc4)nn3)cc(=O)oc2c1,–,0.55 nM,–
Cc1c(C)c(-c2ccc(O)cc2)c(O)c(O)c1-c1ccc(O)cc1,–,0.02 nM,–
Cc1c(C)c(-c2ccc(OCc3cn(CCCCCCNC(=O)CCCC[C@@H]4SC[C@@H]5NC(=O)N[C@@H]54)nn3)cc2)c(O)c(O)c1-c1ccc(O)cc1,–,8.15 nM,–
O=C(Cc1ccccc1)Oc1c(OC(=O)Cc2ccccc2)c(-c2ccc(O)cc2)c(O)c(O)c1-c1ccc(O)cc1 [VIALININ A],–,0.09 nM,14000 nM
